Test results reported in patent publication US20240101572A1, “DIHYDROOXADIAZINONE COMPOUND AND PHARMACEUTICAL USE THEREOF” (Japan Tobacco Inc., priority 2022, published 2024).
Read-outs that look alike come from different tables or passages of the source.

What was measured:
[1] = molecular target: full-length human PLD1 (Homo sapiens (Human), UniProt Q13393); assay: Evaluation of human PLD1 enzyme inhibitory activity (Amplex Red / choline oxidase fluorescence); type: biochemical; conditions: for IC50: full-length human PLD1 enzyme, read-out: PLD1 IC50
Description: A method for measuring human PLD1 enzyme inhibitory activity using an enzyme in which a FLAG-tag is added to the N-terminus of full-length human PLD1 (1-1036 amino acids) is shown below.
(§1) DNA fragment in which a FLAG-tag sequence is added to the 5′-end of full-length human PLD1 was amplified by PCR method, using commercially available human PLD1 gene (Promega KK) as a template. The amplified DNA fragment was fused with vector pVL1393 for baculovirus production (Pharmingen) digested with BamHI and EcoRI, using In-Fusion HD Cloning Kit (Takara Bio). The full-length human PLD1-expression plasmid DNA for baculovirus was isolated from Escherichia coli DH5a (TOYOBO) transformed with the obtained In-Fusion reaction product. Next, DNA fragment in which a FLAG-tag sequence is added to the 5′-end of full-length human PLD1 was amplified by PCR method, using the full-length human PLD1-expression plasmid DNA for baculovirus as a template. The amplified DNA fragment was fused with a DNA fragment in which a linker sequence is introduced into pcDNA3.4-TOPO (Life Technologies), using In-Fusion HD Cloning Kit (Takara Bio). The full-length human PLD1-expression plasmid DNA for animal cells was isolated from Escherichia coli DH5a transformed with the obtained In-Fusion reaction product. The base sequence of the full-length human PLD1 cloned into vector was determined by a Dye Terminator method using BigDye Terminator v3.1 Cycle Sequencing Kit (Applied Biosystems). The determined sequence was a sequence in which the FLAG-tag sequence was inserted at the 5′-end of the full-length human PLD1 (GenBank Accession Number: NM_001130081).
(§2) Expi293F cells (Life Technologies) were cultured with shaking using Expi293 Expression Medium (Life Technologies) as a medium at 37° C. in the presence of 8% CO2. The gene introduction reagent PEI was prepared by dissolving Polyethylenimine Max (nominally MW 40,000) (Polysciences) in MilliQ water, adjusting the pH of the solution to 7.0 with NaOH to obtain a 1 mg/mL solution, and then filtering the solution through 0.22 μm filter. The full-length human PLD1-expression plasmid DNA for animal cells was transfected into Expi293F cells using PEI, and after 48 hours of shaking culture, the cells were collected and stored at −80° C.
(§3) To the full-length human PLD1-expressed cells was added a Homogenate buffer (20 mmol/L Na-phosphate pH 7.5, 250 mmol/L NaCl, 1 mmol/L MgCl2, 1% β-OG, 0.05 mmol/L DTT+complete EDTA-free (Roche Diagnostics K.K.)), and the cells were lysed by Microfluidizer Processor M-110EH (Mizuho Kogyo Co., Ltd.). The lysate was centrifuged at 10,100×g at 4° C. for 15 minutes, and the supernatant was collected and filtered through 0.45 μm filter. To the centrifuged supernatant was added ANTI-FLAG M2 Affinity Gel (SIGMA-Aldrich) resin equilibrated with a Homogenate buffer, and the mixed solution was stirred at 4° C. for 1 hr or more. The mixed solution was loaded onto Poly-Prep column, and the resin was washed with a Wash buffer (20 mmol/L Na-phosphate pH 7.5, 150 mmol/L NaCl, 1 mmol/L MgCl2, 0.02% Triton, 0.05 mmol/L DTT). A Wash buffer containing 400 μg/mL DYKDDDDK Peptide (Scrum Inc.) was added to the column to elute the protein bound to the resin. The eluted fractions were subjected to SDS-PAGE followed by CBB staining to identify the fractions containing the full-length human PLD1. The eluted fractions of the full-length human PLD1 were collected and concentrated using Amicon Ultra-15 100k (Merck Millipore). The concentrated fractions were collected, flash-frozen in liquid nitrogen and stored at −80° C.
(§4) A DMSO or test substance solution (the DMSO final concentration: 5%) prepared by diluting DMSO or test substance with an Assay buffer (50 mmol/L HEPES pH 7.5, 80 mmol/L KCl, 3 mmol/L EGTA, 3.6 mmol/L MgCl2, 0.01% NP-40, 0.1% BSA), and the solution was added to a 384 well Assay Plate (Black, Polystyrene, Non-Treated, Cat No. 3573, Corning) by 5 μL/well. […]

[2] = molecular target: full-length human PLD2 (Homo sapiens (Human), UniProt O14939); assay: Evaluation of human PLD2 enzyme inhibitory activity (Amplex Red / choline oxidase fluorescence); type: biochemical; conditions: for IC50: full-length human PLD2 enzyme, read-out: PLD2 IC50
Description: A method for measuring human PLD2 enzyme inhibitory activity using an enzyme in which a FLAG-tag is added to the N-terminus of full-length human PLD2 (1-933 amino acids) is shown below.
as §1, with “PLD2” for “PLD1”, “PLD2-expression” for “PLD1-expression”, “NM 002663).” for “NM_001130081).”
as §2, with “PLD2-expression” for “PLD1-expression”
as §3, with “PLD2-expressed” for “PLD1-expressed”, “PLD2.” for “PLD1.”, “PLD2” for “PLD1”
as §4

Chain of full-length human PLD2 (O14939 whole entry, the tested form may be a part): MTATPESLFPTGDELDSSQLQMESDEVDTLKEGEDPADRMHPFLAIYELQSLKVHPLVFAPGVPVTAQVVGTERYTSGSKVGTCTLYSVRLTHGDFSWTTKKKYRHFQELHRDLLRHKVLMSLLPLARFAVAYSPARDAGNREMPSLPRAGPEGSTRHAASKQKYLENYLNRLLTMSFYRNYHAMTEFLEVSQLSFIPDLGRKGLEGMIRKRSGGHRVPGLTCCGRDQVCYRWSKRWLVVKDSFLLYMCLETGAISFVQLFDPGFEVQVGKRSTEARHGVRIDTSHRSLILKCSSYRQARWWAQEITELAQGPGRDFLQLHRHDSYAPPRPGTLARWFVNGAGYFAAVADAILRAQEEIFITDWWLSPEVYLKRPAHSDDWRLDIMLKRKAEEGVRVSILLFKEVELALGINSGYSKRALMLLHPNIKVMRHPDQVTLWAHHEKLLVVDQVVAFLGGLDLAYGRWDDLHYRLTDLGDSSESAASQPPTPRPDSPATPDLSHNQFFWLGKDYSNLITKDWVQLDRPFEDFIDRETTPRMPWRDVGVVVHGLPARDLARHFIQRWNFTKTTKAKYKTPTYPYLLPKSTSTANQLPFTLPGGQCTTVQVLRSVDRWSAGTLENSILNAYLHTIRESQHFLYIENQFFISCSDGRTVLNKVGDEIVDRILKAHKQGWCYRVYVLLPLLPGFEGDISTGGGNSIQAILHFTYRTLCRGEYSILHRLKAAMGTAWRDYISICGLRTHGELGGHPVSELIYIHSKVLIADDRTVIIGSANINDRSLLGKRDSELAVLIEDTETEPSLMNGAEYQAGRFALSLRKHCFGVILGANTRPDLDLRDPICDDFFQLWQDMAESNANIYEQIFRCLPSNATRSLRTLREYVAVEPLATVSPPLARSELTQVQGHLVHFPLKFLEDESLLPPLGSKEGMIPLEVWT
Chain of full-length human PLD1 (Q13393 other isoform, or with tags, fused parts or gaps): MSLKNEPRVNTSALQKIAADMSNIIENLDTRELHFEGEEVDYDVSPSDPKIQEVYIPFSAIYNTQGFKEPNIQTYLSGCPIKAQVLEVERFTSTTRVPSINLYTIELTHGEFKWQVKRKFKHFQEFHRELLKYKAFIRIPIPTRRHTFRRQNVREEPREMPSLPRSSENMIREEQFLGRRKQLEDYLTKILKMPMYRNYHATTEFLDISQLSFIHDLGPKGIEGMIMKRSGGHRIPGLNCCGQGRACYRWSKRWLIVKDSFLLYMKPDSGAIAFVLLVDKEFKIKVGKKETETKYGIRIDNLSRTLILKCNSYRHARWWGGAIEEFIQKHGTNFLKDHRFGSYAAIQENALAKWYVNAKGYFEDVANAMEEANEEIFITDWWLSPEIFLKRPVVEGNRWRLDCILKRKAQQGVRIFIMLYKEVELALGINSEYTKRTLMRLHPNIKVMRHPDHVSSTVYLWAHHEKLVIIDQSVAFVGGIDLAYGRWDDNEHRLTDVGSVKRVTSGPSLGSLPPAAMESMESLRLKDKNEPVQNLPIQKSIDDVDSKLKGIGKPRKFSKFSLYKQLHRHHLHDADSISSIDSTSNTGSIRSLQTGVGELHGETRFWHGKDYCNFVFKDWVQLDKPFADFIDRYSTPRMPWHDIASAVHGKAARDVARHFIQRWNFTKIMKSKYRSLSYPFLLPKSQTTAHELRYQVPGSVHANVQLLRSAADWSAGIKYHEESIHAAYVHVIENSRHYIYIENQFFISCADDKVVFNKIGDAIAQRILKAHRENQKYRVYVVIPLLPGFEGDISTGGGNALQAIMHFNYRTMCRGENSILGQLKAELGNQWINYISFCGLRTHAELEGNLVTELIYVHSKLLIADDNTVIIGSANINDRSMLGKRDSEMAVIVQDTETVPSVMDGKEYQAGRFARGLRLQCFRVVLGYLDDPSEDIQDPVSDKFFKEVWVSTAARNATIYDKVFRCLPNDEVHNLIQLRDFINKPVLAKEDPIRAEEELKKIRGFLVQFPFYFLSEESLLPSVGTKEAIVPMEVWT

With CSc1ccccc1C1=NNC(=O)O[C@]12CC[C@@H](C[C@H](C)NC(=O)c1cc(Cl)no1)CC2 [Example 79] the IC50 [1] was under 10 nM and the IC50 [2] was under 10 nM.
C[C@@H](CN1CCC2(CC1)OC(=O)NN=C2c1ccc(F)cc1Br)NC(=O)C(=O)NC1CC1 [Example 180] showed an IC50 [1] of 28 nM and an IC50 [2] of 12 nM.
CNC(=O)C(=O)N[C@@H](C)C[C@H]1CC[C@]2(CC1)OC(=O)NN=C2c1cc(OC)ncc1Br [Example 2-074] was tested, and the IC50 [1] was 11 nM and the IC50 [2] was under 10 nM.
[2H]C([2H])([C@H](C)NC(=O)C(=O)NC)N1CCC2(CC1)OC(=O)NN=C2c1ccc(F)cc1Br [Example 333] showed an IC50 [1] of 25 nM and an IC50 [2] of under 10 nM.
With Cc1cc(C(=O)N[C@@H](C)C[C@H]2CC[C@]3(CC2)OC(=O)NN=C3c2ccc(S(C)(=O)=O)cc2Br)[nH]n1 [Example 31] the IC50 [1] was 24 nM and the IC50 [2] was under 10 nM.
In the case of COc1cc(C)c(C2=NNC(=O)O[C@]23CC[C@@H](C[C@H](C)NC(=O)c2cc(C)n[nH]2)CC3)cn1 [Example 160], the IC50 [1] is reported as 26 nM and the IC50 [2] is reported as 17 nM.
Work on CNC(=O)C(=O)N[C@@H](C)CN1CCC2(CC1)OC(=O)NN=C2c1ccc(C#N)cc1C(F)(F)F [Example 327] yielded an IC50 [1] of 110 nM and an IC50 [2] of 51 nM.
Work on CNC(=O)C(=O)N[C@@H](C)C[C@H]1CC[C@]2(CC1)OC(=O)NN=C2c1cnc(C(F)(F)F)cc1C [Example 174] yielded an IC50 [1] of 42 nM and an IC50 [2] of 17 nM.
In the case of Cc1cc(C(=O)N[C@@H](C)C[C@H]2CC[C@]3(CC2)OC(=O)NN=C3c2cnc(N3CCOCC3)cc2Cl)[nH]n1 [Example 226], the IC50 [1] is reported as 18 nM and the IC50 [2] is reported as under 10 nM.
Cc1cc(F)ccc1C1=NNC(=O)O[C@]12CC[C@@H](C[C@H](C)NC(=O)c1ccc(Cl)cc1F)CC2 [Example 88] was tested, and the IC50 [1] was 56 nM and the IC50 [2] was 65 nM.
With CNC(=O)C(=O)NC[C@@H](C)N1CCC2(CC1)OC(=O)NN=C2c1ccc(C#N)cc1Br [Example 330] the IC50 [1] was 3150 nM and the IC50 [2] was 26 nM.
C[C@@H](C[C@H]1CC[C@]2(CC1)OC(=O)NN=C2c1nccn1CC1CC1)NC(=O)c1cc(Cl)no1 [Example 83] showed an IC50 [1] of 259 nM and an IC50 [2] of 221 nM.
For Cc1cc(C(=O)N[C@@H](C)C[C@H]2CC[C@]3(CC2)OC(=O)NN=C3c2cnc(N3C[C@@H]4C[C@H]3CO4)cc2C)[nH]n1 [Example 250], the IC50 [1] was 22 nM and the IC50 [2] was under 10 nM.
For Cc1cc(C(=O)N[C@@H](C)C[C@]2(O)CC[C@@]3(CC2)OC(=O)NN=C3c2ccc(F)cc2Br)[nH]n1 [Example 322, N—((S)-1-(trans-5-(2-bromo-4-fluorophenyl)-9-hydroxy-2-oxo-1-oxa-3,4-diazaspiro[5,5]undec-4-en-9-yl)propan-2-yl)-3-methyl-1H-pyrazole-5-carboxamide], the IC50 [1] was 30 nM and the IC50 [2] was under 10 nM.
For C[C@@H](C[C@H]1CC[C@]2(CC1)OC(=O)NN=C2c1cc(C#N)ccc1Br)NC(=O)C(=O)O [Example 2-171], the inhibition at 10 µM ([1]; read-out: human PLD1 % inhibition at 10 μM) was 12%, the inhibition at 10 µM ([1]; read-out: inhibition rate of PLD1 at 10 μM compound) was 12% and the inhibition at 10 µM ([2]; read-out: human PLD2 % inhibition at 10 μM) was 23%. The inhibition at 10 µM ([2]; read-out: inhibition rate of PLD2 at 10 μM compound) was 23%.
Compound C[C@@H](C[C@H]1CC[C@]2(CC1)OC(=O)NN=C2c1cc(C#N)ccc1Br)NC(=O)c1ccn(C)n1 [Example 2-070] has an IC50 [1] of 68 nM and an IC50 [2] of 38 nM.
Work on CNC(=O)C(=O)N[C@@H](C)C[C@H]1CC[C@]2(CC1)OC(=O)NN=C2c1cnc(I)cc1C [Example 172] yielded an IC50 [1] of 23 nM and an IC50 [2] of 12 nM.
Compound CNC(=O)C(=O)N[C@@H](C)C[C@H]1CC[C@]2(CC1)OC(=O)NN=C2c1cc(OC(F)F)ccc1Br [Example 184] has an IC50 [1] of under 10 nM and an IC50 [2] of under 10 nM.
C[C@@H](C[C@H]1CC[C@]2(CC1)OC(=O)NN=C2c1ccc(F)cc1Cl)NC(=O)C(=O)NC1CC1 [Example 70] gave an IC50 [1] of 28 nM and an IC50 [2] of 20 nM.
For C[C@@H](CN1CCC2(CC1)OC(=O)NN=C2c1cc(C#N)ccc1Br)NC(=O)CCC(F)(F)F [Example 2-023], the IC50 [1] was 102 nM and the IC50 [2] was 64 nM.
Cc1cc(C(=O)N[C@@H](C)C[C@H]2CC[C@]3(CC2)OC(=O)NN=C3c2ccccc2OC(F)(F)F)[nH]n1 [Example 110] showed an IC50 [1] of 83 nM and an IC50 [2] of 99 nM.
In the case of Cc1cc(C(=O)NC(C)CN2CCC3(CC2)OC(=O)NN=C3c2cccc(F)c2Br)[nH]n1 (stereo not shown) [Example 2-031], the IC50 [1] is reported as 19 nM and the IC50 [2] is reported as under 10 nM.
Work on CNC(=O)C(=O)N[C@@H](C)C[C@H]1CC[C@]2(CC1)OC(=O)NN=C2c1ccc(F)cc1C(F)(F)F [Example 56] yielded an IC50 [1] of 26 nM and an IC50 [2] of 17 nM.
CNC(=O)C(=O)N[C@@H](C)CN1CCC2(CC1)OC(=O)NN=C2c1ccc(Cl)cc1C [Example 216] showed an IC50 [1] of 29 nM and an IC50 [2] of 19 nM.
In the case of C[C@@H](C[C@H]1CC[C@]2(CC1)OC(=O)NN=C2c1nccn1CC1CC1)NC(=O)c1cc2ccccc2o1 [Example 84], the IC50 [1] is reported as 70 nM and the IC50 [2] is reported as 53 nM.
